Measurements published in PubChem BioAssay (NCI).
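Growth conditions: 96-well plates. Treatment: test compound, 48 hours, 5 concentrations. Analysis: linear interpolation between bracketing concentrations; unreached endpoints set to highest concentration. TGI is the concentration that stops growth completely.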

How the values were obtained:
Test in all cases: DTP human tumour cell line panel, 48 h
[1] = system: A549 NSCLC
[2] = system: CCRF-CEM leukemia
[3] = system: HOP-62 NSCLC
[4] = system: IGROV1 ovarian
[5] = system: KM12 colon
[6] = system: NCI-H226 lung
[7] = system: NCI-H460 lung
[8] = system: OVCAR-4 ovarian
[9] = system: OVCAR-8 ovarian
[10] = system: RPMI-8226 leukemia
[11] = system: RXF 393 renal
[12] = system: SK-MEL-2 melanoma
[13] = system: SK-MEL-5 melanoma
[14] = system: SN12C renal
[15] = system: SNB-19 CNS
[16] = system: SR leukemia
[17] = system: SW-620 colon
[18] = system: TK-10 renal
[19] = system: HL-60(TB) leukemia
[20] = system: NCI-H522 lung

Row | SMILES | TGI [1] | TGI [2] | TGI [3] | TGI [4] | TGI [5] | TGI [6] | TGI [7] | TGI [8] | TGI [9] | TGI [10] | TGI [11] | TGI [12] | TGI [13] | TGI [14] | TGI [15] | TGI [16] | TGI [17] | TGI [18] | TGI [19] | TGI [20]
1 | Cc1cc(C)c(S(=O)(=O)N(CCCN)OCCCN)c(C)c1 | > 100 µM | > 100 µM | > 100 µM | > 100 µM | > 100 µM | > 100 µM | > 100 µM | > 100 µM | > 100 µM | > 100 µM | > 100 µM | > 100 µM | > 100 µM | > 100 µM | > 100 µM | > 100 µM | > 100 µM | > 100 µM |  | 
2 | CCN1C(=O)N2C(OC)c3ccccc3C(Br)C2(OC)C1=O (stereo not given) |  | > 100 µM | > 100 µM | > 100 µM | > 100 µM | > 100 µM | > 100 µM | > 100 µM | > 100 µM | > 100 µM |  | > 100 µM | > 100 µM | > 100 µM | > 100 µM | > 100 µM | > 100 µM | > 100 µM | > 100 µM | > 100 µM
3 | CC1CCN(c2cc(-c3cc4ccccc4o3)oc(=O)c2C#N)CC1 | > 100 µM | > 100 µM |  | > 100 µM | > 100 µM | > 100 µM | > 100 µM | > 100 µM | > 100 µM | > 100 µM | > 100 µM | > 100 µM | > 100 µM | > 100 µM | > 100 µM | > 100 µM | > 100 µM | > 100 µM | > 100 µM | 
4 | CCOC(=O)[C@H]1Nc2c(cccc2[N+](=O)[O-])C2c3ccccc3CC21 (stereo not given in full) | > 100 µM |  | > 100 µM | > 100 µM | > 100 µM | > 100 µM | > 100 µM | > 100 µM | > 100 µM | > 100 µM | 45.8 µM | > 100 µM | > 100 µM | > 100 µM | > 100 µM | > 100 µM | > 100 µM | > 100 µM |  | > 100 µM
5 | O=C(/C=C\c1ccc(/C=C/C(=O)Nc2cccc(C3=NCCCN3)c2)cc1)Nc1cccc(C2=NCCCN2)c1 | > 100 µM | > 100 µM | > 100 µM | > 100 µM | > 100 µM |  | > 100 µM | > 100 µM | > 100 µM | 76.3 µM | > 100 µM | > 100 µM | > 83.5 µM | > 100 µM | > 100 µM |  | > 100 µM |  | > 100 µM | > 100 µM
6 | c1csc(C(NC2=NCCO2)C2CC2)c1 (stereo not given) | > 100 µM |  | > 100 µM | > 100 µM |  | > 100 µM | > 100 µM | > 100 µM | > 100 µM | > 100 µM | > 100 µM | > 100 µM | > 100 µM | > 100 µM | > 100 µM | > 100 µM | > 100 µM |  |  | > 100 µM
7 | CO/C(=N\N=C(/c1ccccc1)C(F)(F)F)c1ccncc1 |  | 77 µM | > 100 µM | > 100 µM | > 100 µM | 77.4 µM | > 100 µM | > 100 µM | > 100 µM | > 100 µM | > 100 µM | > 100 µM | 57 µM | > 100 µM | > 100 µM | > 100 µM |  |  | > 100 µM | > 100 µM
8 | Fc1ccc(C(OCCN2CC3CC2CN3)c2ccc(F)cc2)cc1 (stereo not given) |  | > 100 µM | > 100 µM | > 100 µM | > 100 µM | > 100 µM | > 100 µM | > 100 µM | > 100 µM | 71.1 µM | > 100 µM | 38.1 µM | 30.9 µM |  |  | 73 µM | > 100 µM | > 100 µM | > 100 µM | > 100 µM
9 | Cc1ccc2oc3c(ccc(=O)n3C)c(=O)c2c1 | > 100 µM | > 100 µM | > 100 µM | > 100 µM | > 100 µM | > 100 µM | > 100 µM | > 100 µM | > 100 µM |  | > 100 µM | > 100 µM | > 100 µM | > 100 µM | > 100 µM | > 100 µM | > 100 µM | > 100 µM | > 100 µM | > 100 µM
10 | Clc1cccc(C2SCc3nc4ccccc4n32)c1 (stereo not given) | > 100 µM | > 100 µM | 55.9 µM | 70 µM | 50.5 µM | 33.7 µM | > 100 µM | > 100 µM | 65.1 µM | > 100 µM | 41.7 µM |  |  | 28.6 µM |  | 56.3 µM | > 100 µM | 63.9 µM | 31.6 µM | 29.5 µM
